Among the data in patent US20230117034A1, “PYRAZOLOTRIAZINES” (Bayer Aktiengesellschaft, priority 2019, published 2023) are DC50 and IC50 values, retold here.

Some results are limits rather than exact numbers.

Assay [1] deals with T1, CYCLIN K (nuclear staining in CAL-120 cells) (Homo sapiens, UniProt O75909).
T1 construct: endogenous in cells; host or cells: CAL-120 human breast cancer cells (DSMZ ACC 459)
The assay is described as follows: CYCLIN K nuclear protein level: immunofluorescence high content analysis (CAL-120). It counts as cell-based. The settings on record: 24 h, 50% reduction of nuclear CCNK staining intensity, median, read-out: CYCLIN K degradation IF, DC50-[mol/l] (median). The procedure: 8. CYCLIN K nuclear protein level: immunofluorescence High Content Analysis
CAL-120 human breast cancer cells (DSMZ ACC 459) are seeded in 1536-well microtiter plates (800 cells per well) containing 50 nanoL of compounds in Dose-Response. Control wells received DMSO or Example 4. Plates are then incubated for 24 h at 37° C. in an humidified incubator and fixed with 4% PFA for 10 min. Then immunofluorescence (IF) against CYCLIN K (ThermoFisher Scientific CONK Antibody #PA5-85020, rabbit, 1:200 dilution) is performed using standard IF protocols. Cells are then stained with Hoechst 33342 (Life Technologies, H-1399, 0.1 microg/ml) and imaged on an automated confocal microscopy system (e.g. Perkin Elmer Opera Phenix). Nuclear and cytoplasmic intensity as well as the nuclear/cytoplasmic intensity ratio is determined by automated image analysis using custom generated scripts (MetaXpress). Data is then transferred to Genedata Screener software, normalized to DMSO and control and DC50 values (degrading concentration to achieve 50% reduction of nuclear CCNK staining intensity relative to controls) are reported.

Another assay addresses CDK12/CycK (Homo sapiens, UniProt Q9NYV4). Description: CDK12/CycK high ATP kinase assay (TR-FRET, 2 mM ATP). It counts as biochemical. To be noted: 2 mM ATP (high ATP); median; read-out: CDK12/CyclinK, 2 mM ATP (high ATP), IC50-[mol/l] (median). The procedure:
In the context of the present invention, the term “IC50 CDK12 hATP” refers to the IC50 values obtained according to the assay described in this section (2.2) herein below, i.e. the IC50 values for the inhibition of CDK12 at high (2 mM) ATP.
CDK12/CycK-inhibitory activity of compounds of the present invention at 2 millimol/L adenosine-tri-phosphate (ATP) was quantified employing the TR-FRET (TR-FRET=Time Resolved Fluorescence Energy Transfer) based CDK12/CycK activity inhibition assay as described in the following paragraphs.
A complex of human recombinant CDK12 and human recombinant CycK (both N-terminally His-tagged, expression and purification as described above) was used as enzyme. As substrate for the kinase reaction biotinylated peptide biotin-Ahx-KFELLPTPPLSPSRRSGL (C-terminus in amid form) was used which can be purchased e.g. form the company Biosyntan (Berlin-Buch, Germany).
For the assay 50 nanoL of a 100 fold concentrated solution of the test compound in DMSO was pipetted into either a black low volume 384 well microtiter plate or a black 1536 well microtiter plate (both Greiner Bio-One, Frickenhausen, Germany), 2 microL of a solution of CDK12/CycK in aqueous assay buffer [25 millimol/L HEPES pH 7.5, 20 millimol/L MgCl2, 5 millimol/L β-glycerophosphate, 2 millimol/L EGTA, 1.0 millimol/L dithiothreitol, 0.01% (v/v) Nonidet-P40 (Sigma), 0.01% (w/v) bovine serum albumin] were added and the mixture was incubated for 15 min at 22° C. to allow pre-binding of the test compounds to the enzyme before the start of the kinase reaction. Then the kinase reaction was started by the addition of 3 microL of a solution ATP (3.33 millimol/L=>final conc. in the 5 microL assay volume is 2 millimol/L) and substrate (1.67 micromol/L=>final conc. in the 5 microL assay volume is 1 micromol/L) in assay buffer and the resulting mixture was incubated for a reaction time of 60 min at 22° C. The concentration of CDK12/CycK was adjusted depending of the activity of the enzyme lot and was chosen appropriate to have the assay in the linear range, typical concentrations were about 0.75 nanomol/L. The reaction was stopped by the addition of 3 microL of a solution of TR-FRET detection reagents (125 nanomol/L streptavidine-XL665 [Cisbio Bioassays, Codolet, France] and 0.67 nanomol/L anti-Phospho-c-Myc (Ser 62) (E1J4K)-antibody from Cell Signalling [#13748] and 2 nanomol/L LANCE EU-W1024 labeled anti-rabbit IgG antibody [Perkin-Elmer, product no. 0083]) in an aqueous EDTA-solution (133 millimol/L EDTA, 0.27% (w/v) bovine serum albumin in 66.7 millimol/L HEPES pH 7.5).
The resulting mixture was incubated 1 h at 22° C. to allow the formation of complex between the phosphorylated biotinylated peptide and the detection reagents. Subsequently the amount of phosphorylated substrate was evaluated by measurement of the resonance energy transfer from the Eu-chelate to the streptavidine-XL. Therefore, the fluorescence emissions at 620 nm and 665 nm after excitation at 350 nm was measured in a TR-FRET reader, e.g. a Pherastar FS (BMG Labtechnologies, Offenburg, Germany) or a Viewlux (Perkin-Elmer). The ratio of the emissions at 665 nm and at […] was taken as the measure for the amount of phosphorylated substrate. The data were normalised (enzyme reaction without inhibitor=0% inhibition, all other assay components but no enzyme=100% inhibition).
On the technique in general: In TR-FRET formats the signal depends on donor and acceptor labels being close together.

Assay [2] deals with CAL-120, human breast adenocarcinoma cells. The assay is described as follows: Proliferation assay CAL-120 (crystal violet, 4 days). It counts as cell-based. The settings on record: Homo sapiens, CAL-120, 96 h, CAL-120 cells, median, read-out: Prolif-CAL-120, IC50-[mol/l] (median). The procedure: Human tumour cells were originally obtained from the American Type Culture Collection (ATCC), or from the Deutsche Sammlung von Mikroorganismen und Zellkulturen (DSMZ, German Collection of Microorganisms and Cell Cultures). Cultivated tumour cells (CAL-120, human breast adenocarcinoma cells, DSMZ ACC-459; MDA-MB-231, human breast cancer cells, ATCC HTB-26) were plated at a density of 4,000 cells/well in a 96-well multititer plate in 200 microL of their respective growth medium supplemented 10% fetal calf serum. After 24 hours, the cells of one plate (zero-point plate) were stained with crystal violet (see below), while the medium of the other plates was supplemented with the test substances in various concentrations (0 micromol/L, as well as in the range of 0.01-10 micromol/L; the final concentration of the solvent dimethyl sulfoxide was adjusted to 0.1%) using a Tecan HP D300 Digital Dispenser. The cells were incubated for 4 days in the presence of test substances. Cell proliferation was determined by staining the cells with crystal violet: the cells were fixed by adding 20 microL/measuring point of an 11% glutaric aldehyde solution for 15 minutes at room temperature. After three washing cycles of the fixed cells with water, the plates were dried at room temperature. The cells were stained by adding 100 microL/measuring point of a 0.1% crystal violet solution (pH 3.0). After three washing cycles of the stained cells with water, the plates were dried at room temperature. The dye was dissolved by adding 100 microL/measuring point of a 10% acetic acid solution. The extinction was determined by photometry at a wavelength of 595 nm. The change of cell number, in percent, was calculated by normalization of the measured values to the extinction values of the zero-point plate (=0%) and the extinction of the untreated (0 μM) cells (=100%). The IC50 values (inhibitory concentration at 50% of maximal effect) were determined by means of a 4 parameter fit.

T1 sequence (O75909 whole entry): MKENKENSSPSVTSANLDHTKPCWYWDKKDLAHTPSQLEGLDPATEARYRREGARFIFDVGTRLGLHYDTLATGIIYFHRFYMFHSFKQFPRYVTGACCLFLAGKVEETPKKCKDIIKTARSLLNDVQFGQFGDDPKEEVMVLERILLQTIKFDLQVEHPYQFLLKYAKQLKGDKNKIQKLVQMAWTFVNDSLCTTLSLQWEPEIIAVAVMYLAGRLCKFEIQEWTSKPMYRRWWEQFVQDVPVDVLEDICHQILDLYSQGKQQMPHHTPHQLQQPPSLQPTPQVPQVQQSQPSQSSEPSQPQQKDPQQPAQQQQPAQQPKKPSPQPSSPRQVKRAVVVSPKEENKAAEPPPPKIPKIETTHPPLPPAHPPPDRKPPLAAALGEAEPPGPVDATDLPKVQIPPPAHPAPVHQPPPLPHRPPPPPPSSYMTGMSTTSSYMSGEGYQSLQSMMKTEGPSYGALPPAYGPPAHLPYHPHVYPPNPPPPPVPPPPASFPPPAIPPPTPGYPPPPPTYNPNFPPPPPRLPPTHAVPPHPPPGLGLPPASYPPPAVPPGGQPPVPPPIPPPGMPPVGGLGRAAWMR
T1 sequence (Q9NYV4 whole entry partner): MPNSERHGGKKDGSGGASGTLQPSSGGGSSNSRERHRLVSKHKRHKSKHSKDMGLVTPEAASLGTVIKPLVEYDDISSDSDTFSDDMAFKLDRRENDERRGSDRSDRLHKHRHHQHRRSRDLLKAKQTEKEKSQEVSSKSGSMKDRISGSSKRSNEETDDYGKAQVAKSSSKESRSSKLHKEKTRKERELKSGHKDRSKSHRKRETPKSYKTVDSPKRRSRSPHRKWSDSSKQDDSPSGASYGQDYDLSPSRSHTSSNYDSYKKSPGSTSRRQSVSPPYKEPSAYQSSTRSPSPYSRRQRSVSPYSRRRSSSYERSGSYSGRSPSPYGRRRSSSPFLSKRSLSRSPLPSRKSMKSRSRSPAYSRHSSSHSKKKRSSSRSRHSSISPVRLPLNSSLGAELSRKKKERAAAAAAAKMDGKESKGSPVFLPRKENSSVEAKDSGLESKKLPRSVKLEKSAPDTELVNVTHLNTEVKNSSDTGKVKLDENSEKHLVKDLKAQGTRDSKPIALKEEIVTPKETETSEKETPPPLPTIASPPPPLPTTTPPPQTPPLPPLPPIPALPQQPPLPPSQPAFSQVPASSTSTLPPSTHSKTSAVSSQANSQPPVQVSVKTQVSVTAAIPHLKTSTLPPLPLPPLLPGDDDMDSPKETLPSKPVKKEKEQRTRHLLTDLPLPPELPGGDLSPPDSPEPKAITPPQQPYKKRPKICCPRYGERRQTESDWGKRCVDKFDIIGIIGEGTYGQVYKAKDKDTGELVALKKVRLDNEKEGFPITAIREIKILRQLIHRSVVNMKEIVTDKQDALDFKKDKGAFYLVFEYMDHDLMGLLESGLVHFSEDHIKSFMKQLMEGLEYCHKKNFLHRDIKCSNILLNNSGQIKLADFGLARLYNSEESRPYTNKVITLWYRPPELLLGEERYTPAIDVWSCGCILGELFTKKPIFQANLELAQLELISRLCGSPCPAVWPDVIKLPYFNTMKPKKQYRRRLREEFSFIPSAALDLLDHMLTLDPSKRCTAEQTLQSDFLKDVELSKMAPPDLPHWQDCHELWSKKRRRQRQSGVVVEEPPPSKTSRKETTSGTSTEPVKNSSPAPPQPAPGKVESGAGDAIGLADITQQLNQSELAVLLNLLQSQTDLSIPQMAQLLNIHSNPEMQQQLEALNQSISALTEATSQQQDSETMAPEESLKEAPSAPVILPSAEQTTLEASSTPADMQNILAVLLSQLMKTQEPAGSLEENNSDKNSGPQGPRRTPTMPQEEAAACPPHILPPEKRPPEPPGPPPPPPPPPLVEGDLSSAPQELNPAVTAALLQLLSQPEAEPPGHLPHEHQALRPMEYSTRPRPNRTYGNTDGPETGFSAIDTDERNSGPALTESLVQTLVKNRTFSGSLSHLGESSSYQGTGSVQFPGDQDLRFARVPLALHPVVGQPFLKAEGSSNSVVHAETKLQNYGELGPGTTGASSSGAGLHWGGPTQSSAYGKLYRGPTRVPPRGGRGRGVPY
Chain of CDK12/CycK (Q9NYV4 with tags, fused parts or gaps): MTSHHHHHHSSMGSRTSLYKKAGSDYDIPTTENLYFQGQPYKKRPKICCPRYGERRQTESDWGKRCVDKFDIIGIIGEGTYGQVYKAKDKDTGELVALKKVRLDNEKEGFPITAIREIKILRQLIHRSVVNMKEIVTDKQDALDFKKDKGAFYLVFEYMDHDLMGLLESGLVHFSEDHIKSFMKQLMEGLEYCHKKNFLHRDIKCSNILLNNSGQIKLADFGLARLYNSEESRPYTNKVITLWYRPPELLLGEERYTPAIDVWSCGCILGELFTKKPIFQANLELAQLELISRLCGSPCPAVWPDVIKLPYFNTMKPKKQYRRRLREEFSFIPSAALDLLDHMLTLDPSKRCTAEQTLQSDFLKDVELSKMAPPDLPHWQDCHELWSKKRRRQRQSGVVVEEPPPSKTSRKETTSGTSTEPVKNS
Chain of CDK12/CycK (O75909 1-300 partner limits assumed): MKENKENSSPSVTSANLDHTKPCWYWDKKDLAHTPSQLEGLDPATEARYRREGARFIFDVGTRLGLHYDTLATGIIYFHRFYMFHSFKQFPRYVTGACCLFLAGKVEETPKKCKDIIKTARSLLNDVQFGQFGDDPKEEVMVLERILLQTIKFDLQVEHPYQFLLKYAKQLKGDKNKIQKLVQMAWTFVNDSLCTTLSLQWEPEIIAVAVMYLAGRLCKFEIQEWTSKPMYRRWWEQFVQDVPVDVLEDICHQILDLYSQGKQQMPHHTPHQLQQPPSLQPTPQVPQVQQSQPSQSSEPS

As for `CC(C)c1cnn2c(NCc3nc4ccccc4[nH]3)nc(N(C)CC(C)(C)O)nc12` [Example 5, 1-{[4-{[(1H-benzimidazol-2-yl)methyl]amino}-8-(propan-2-yl)pyrazolo[1,5-a][1,3,5]triazin-2-yl](methyl)amino}-2-methylpropan-2-ol], the DC50 in assay [1] came to 1.95 nM. The IC50 on CDK12/CycK worked out at 5170 nM.
With `C[C@@H]1CN(c2nc(NCc3nnc(-c4ccccc4)[nH]3)n3ncc(Br)c3n2)CCN1C.O=CO` [Example 130, 8-bromo-2-[(3R)-3,4-dimethylpiperazin-1-yl]-N-[(5-phenyl-4H-1,2,4-triazol-3-yl)methyl]pyrazolo[1,5-a][1,3,5]triazin-4-amine formate], the DC50 in assay [1] came to 2.01 nM. The results for the IC50 (at CDK12/CycK; in assay [2]) were 8440 nM and 34.8 nM, respectively.
In the case of `COc1ccc2[nH]c(CNc3nc(N4CCN(C)CC4)nc4c(Br)cnn34)nc2c1` [Example 161, 8-bromo-N-[(5-methoxy-1H-benzimidazol-2-yl)methyl]-2-(4-methylpiperazin-1-yl)pyrazolo[1,5-a][1,3,5]triazin-4-amine], the DC50 in assay [1] was found to be 1.3 nM. In addition, the IC50 at CDK12/CycK turned out to be 9610 nM; in assay [2], 3.3 nM.
Consider `Cc1ccc2[nH]c(CNc3nc(N4CCOCC4)nc4c(Br)cnn34)nc2c1` [Example 157, 8-bromo-N-[(5-methyl-1H-benzimidazol-2-yl)methyl]-2-(morpholin-4-yl)pyrazolo[1,5-a][1,3,5]triazin-4-amine], for which the DC50 in assay [1] was found to be 0.119 nM. Besides, the figures for the IC50 (at CDK12/CycK; in assay [2]) were 676 nM and 1.78 nM, respectively.
In the case of `COc1ccc2[nH]c(CNc3nc(N4C[C@@H](C)O[C@@H](C)C4)nc4c(Br)cnn34)nc2c1` [Example 124, 8-bromo-2-[(2R, 6S)-2,6-dimethylmorpholin-4-yl]-N-[(5-methoxy-1H-benzimidazol-2-yl)methyl]pyrazolo[1,5-a][1,3,5]triazin-4-amine], in assay [1], the DC50 turned out to be 0.142 nM. In addition, the IC50 at CDK12/CycK worked out at 489 nM; in assay [2], 6.43 nM.
With `Brc1cnn2c(NCc3nc4ccccc4[nH]3)nc(N3CCN4CCC[C@H]4C3)nc12` [Example 148, N-[(1H-benzimidazol-2-yl)methyl]-8-bromo-2-[(8aS)-hexahydropyrrolo[1,2-a]pyrazin-2 (1 H)-yl]pyrazolo[1,5-a][1,3,5]triazin-4-amine], the DC50 in assay [1] came to 8.06 nM. For the same molecule, the values for the IC50 (on CDK12/CycK; in assay [2]) were 10800 nM and 109 nM, respectively.
On the same counts, the results for `C[C@@H]1CN(c2nc(NCc3nnc(-c4ccccc4)[nH]3)n3ncc(Br)c3n2)C[C@H](C)N1` [Example 127, 8-bromo-2-[(3R,5S)-3,5-dimethylpiperazin-1-yl]-N-[(5-phenyl-4H-1,2,4-triazol-3-yl)methyl]pyrazolo[1,5-a][1,3,5]triazin-4-amine] are 2.77 nM, 9710 nM and 28.2 nM.
As for `CC(C)c1cnn2c(NCc3nc4ccccc4[nH]3)nc(N3CCOC[C@@H]3C)nc12` [Example 6, N-[(1H-benzimidazol-2-yl)methyl]-2-[(3S)-3-methylmorpholin-4-yl]-8-(propan-2-yl)pyrazolo[1,5-a][1,3,5]triazin-4-amine], in assay [1], the DC50 amounted to 2.36 nM. The IC50 on CDK12/CycK came to 1780 nM.
Turning to `CC(C)c1cnn2c(NCc3nc4ccccc4[nH]3)nc(NCC(C)(C)O)nc12` [Example 10, 1-{[4-{[(1H-benzimidazol-2-yl)methyl]amino}-8-(propan-2-yl)pyrazolo[1,5-a][1,3,5]triazin-2-yl]amino}-2-methylpropan-2-ol], in assay [1], the DC50 was determined as 3.6 nM. Besides, the IC50 on CDK12/CycK stood at 8750 nM.
On the same counts, the results for `CC(C)c1cnn2c(NCc3nc4ccccc4[nH]3)nc(N3CCCOCC3)nc12` [Example 8, N-[(1H-benzimidazol-2-yl)methyl]-2-(1,4-oxazepan-4-yl)-8-(propan-2-yl)pyrazolo[1,5-a][1,3,5]triazin-4-amine] are 26.9 nM and over 19800 nM.
As for `CN1CCN(c2nc(NCc3nc4ccccc4[nH]3)n3ncc(Br)c3n2)CC1=O` [Example 131, 4-(4-{[(1H-benzimidazol-2-yl)methyl]amino}-8-bromopyrazolo[1,5-a][1,3,5]triazin-2-yl)-1-methylpiperazin-2-one], the IC50 on CDK12/CycK worked out at 11100 nM; in assay [2], 595 nM.
The like results for `CN1CCN(c2nc(NCc3nc4ccccc4[nH]3)n3ncc(Br)c3n2)C(CO)C1` (stereo not shown) [Example 155, [1-[4-(1H-benzimidazol-2-ylmethylamino)-8-bromo-pyrazolo[1,5-a][1,3,5]triazin-2-yl]-4-methyl-piperazin-2-yl]methanol] were, in that order, 3740 nM and 75.3 nM.
The like results for `N=S1(=O)CCN(c2nc(NCc3nc4ccccc4[nH]3)n3ncc(Br)c3n2)CC1` [Example 145, 4-(4-{[(1H-benzimidazol-2-yl)methyl]amino}-8-bromopyrazolo[1,5-a][1,3,5]triazin-2-yl)-1-imino-1lambda^6-thiomorpholin-1-one] were, in that order, 12600 nM and 223 nM.
The like results for `O=S1(=O)CCN(c2nc(NCc3nc4ccccc4[nH]3)n3ncc(Br)c3n2)CC1` [Example 166, 4-(4-{[(1H-benzimidazol-2-yl)methyl]amino}-8-bromopyrazolo[1,5-a][1,3,5]triazin-2-yl)-1 lambda^6-thiomorpholine-1,1-dione] were, in that order, 6090 nM and 20.1 nM.
